pIC50: −log10 of the molar value. Several values for one entry are separate records, joined by “and”; a condition that tells them apart may be missing. Equal entries are not always repeated. Where two headings read alike, the source gives them in different places.
How the values were obtained:
[1] = set-up: method as in PMID 25922266; details: rat plasma; cited from earlier work
[2] = test system: epimastigote forms of T. cruzi, Y strain; assay: Trypanocidal activity on epimastigote forms (growth inhibition, Neubauer chamber count); type: cell-based, Trypanosoma cruzi; details: for IC50: Trypanosoma cruzi; for Selectivity Index (SI) Epimastigote: ratio CC50 (LLC-MK2) / IC50 epimastigote
Experimental: (§1) Initially, the prepared esters were submitted to in vitro tests using the microdilution technique in 96-well plates to evaluate the trypanocidal activity against the epimastigote evolutionary form at different concentrations (200–3.12 μg/mL). Then, the compounds with the best activity were tested against the trypomastigote form of T. cruzi. In both assays, IC50 values were calculated; a compound is considered to have trypanocidal activity when IC50 <40 μM [21]. The results are expressed in Table 1.
Initially, epimastigotes were cultured and distributed in 96-well plates at a density of 10^6 cells/mL in liver infusion tryptose medium supplemented with 10% fetal bovine serum (FBS) and 1% antibiotic. Then, the cells were treated with piplartine analogues at different concentrations and incubated at 28 °C for 24 h. To quantify the growth inhibition of the parasites, a Neubauer chamber was used, and the IC50 was defined.

[3] = test system: trypomastigote forms of T. cruzi, Y strain; assay: Trypanocidal activity on trypomastigote forms (viability by counting); type: cell-based, Trypanosoma cruzi; details: for IC50: Trypanosoma cruzi, Y strain, 24 h; for Selectivity Index (SI) Trypomastigote: ratio CC50 (LLC-MK2) / IC50 trypomastigote
Experimental: as §1
Trypomastigote forms were obtained by infecting LLC-MK2 cells with the parasite; in this way, the cells were incubated for 24 h in T-25/75 cm^2 flasks at 37 °C in an atmosphere with 5% CO2 in DMEM medium supplemented with 2% FBS and 1% antibiotic. Subsequently, the trypomastigote forms were distributed in 96-well plates treated with piplartine analogues at different concentrations (200; 100; 50; 25; 12.5; 6.25; 3.12 μg/mL) and incubated at 37 °C for 24 h. The assessment of cell viability was performed by counting, and the IC50 was defined.

[4] = test system: epimastigote forms of T. cruzi; set-up: method as in doi:10.1007/s00044-008-9161-9; details: read-out: IC50 growth of epimastigote forms; cited from earlier work
[5] = In vitro cytotoxicity, MTT assay; type: cell-based, Rhesus monkey; details: Rhesus monkey, MTT, 24 h, read-out: LLCK-MK2 CC50
Experimental: The compounds were considered selective for the parasite when SI ≥ 10 [21]. The results are expressed in Table 2.
For the cytotoxicity analysis, the (3-[4,5-dimethylthiazol-2-yl]-2,5 diphenyl tetrazolium bromide) (MTT) assay was used, in which the LLC-MK2 cells were cultured in Dulbecco’s Modified Eagle Medium (DMEM), then exposed to the piplartine analogues at different concentrations (25–200 μg/mL) and incubated for 24 h at 37 °C. Then MTT was added, and the cells were incubated for 4 h, after which 10% sodium dodecyl sulfate was added. […] To calculate the relative cell viability, cells treated only with sterile phosphate-buffered saline were used as a negative control. The experiments were conducted in triplicates.

[6] = test system: amastigote form of the parasite; set-up: method as in PMID 25880257; details: cited from earlier work
[7] = test system: epimastigote form of T. cruzi; set-up: method as in PMID 31775321; details: cited from earlier work

Row | SMILES | IC50 ([2]; Y strain, 24 h) | Selectivity Index (SI) Epimastigote [2] | CC50 at 24 h [5] | CC50 at 24 h ([5]; LLC-MK2 renal epithelial cells) | also measured
1 | COc1cc(C=CC(=O)O)cc(OC)c1OC [3,4,5-trimethoxycinnamic acid] | – | – | – | – | bioavailability [1]: high bioavailability; oral absorption [1]: rapid oral absorption
2 | O=C(Cn1ccnc1[N+](=O)[O-])NCc1ccccc1 [Benznidazole, reference compound] | 23 µg/mL and 115 µM | – | – | – | IC50 [3]: 32.3 µg/mL and 161 µM; pIC50 [4]: 4.37
3 | COC(=O)/C=C/c1cc(OC)c(OC)c(OC)c1 [Compound 1, (E)-Methyl 3-(3,4,5-trimethoxyphenyl)acrylate] | 31.5 µg/mL and 125 µM | 4.01 | 126 µg/mL and 501 µM | – | –
4 | CCOC(=O)/C=C/c1cc(OC)c(OC)c(OC)c1 [Compound 2] | 85.7 µg/mL and 322 µM | >2.3 | > 200 µg/mL and > 751 µM | – | –
5 | CCCOC(=O)/C=C/c1cc(OC)c(OC)c(OC)c1 [Compound 3] | 90.1 µg/mL and 321 µM | 1.6 | 148 µg/mL and 526 µM | – | –
6 | COc1cc(/C=C/C(=O)OC(C)C)cc(OC)c1OC [Compound 4] | 74.5 µg/mL and 266 µM | >2.7 | > 200 µg/mL and > 714 µM | – | –
7 | CCCCCOC(=O)/C=C/c1cc(OC)c(OC)c(OC)c1 [Compound 5] | 20.2 µg/mL and 65.5 µM | >9.9 | > 200 µg/mL and > 649 µM | – | –
8 | CCCCCCCCCCOC(=O)/C=C/c1cc(OC)c(OC)c(OC)c1 [Compound 6] | – | – | > 200 µg/mL and > 528 µM | – | trypanocidal activity against epimastigote form (in words) ([2]; Y strain): suppressed the trypanocidal activity; Epimastigote IC50 ([2]; Y strain, 24 h): n*
9 | COc1ccc(COC(=O)/C=C/c2cc(OC)c(OC)c(OC)c2)cc1 [Compound 7] | 56.4 µg/mL and 157 µM | 3.5 | – | 196 µg/mL and 547 µM | –
10 | COc1cccc(COC(=O)/C=C/c2cc(OC)c(OC)c(OC)c2)c1 [Compound 8] | 40.3 µg/mL and 112 µM | 2.5 | – | 100 µg/mL and 280 µM | IC50 [3]: 64.4 µg/mL and 180 µM; Selectivity Index (SI) Trypomastigote [3]: 1.6
11 | COc1cc(/C=C/C(=O)OCc2ccc(C)cc2)cc(OC)c1OC [Compound 9] | 61.8 µg/mL and 180 µM | 3.0 | – | 183 µg/mL and 534 µM | IC50 [3]: 39.9 µg/mL and 123 µM; Selectivity Index (SI) Trypomastigote [3]: 4.6
12 | COc1cc(/C=C/C(=O)OCc2ccccc2)cc(OC)c1OC [Compound 10] | 40 µg/mL and 122 µM | 4.6 | – | 183 µg/mL and 557 µM | IC50 [3]: 13.4 µg/mL and 40.8 µM; Selectivity Index (SI) Trypomastigote [3]: 13.7
13 | C=C(C)[C@@H]1CC=C(COC(=O)/C=C/c2cc(OC)c(OC)c(OC)c2)CC1 [Compound 12] | 70.1 µg/mL and 188 µM | 1.5 | – | 106 µg/mL and 284 µM | IC50 [3]: 38.7 µg/mL and 104 µM; Selectivity Index (SI) Trypomastigote [3]: 2.7
14 | COc1cc(C=CC(=O)OC2CC3CCC2(C)C3(C)C)cc(OC)c1OC (stereo not shown) [Compound 13] | 155 µg/mL and 414 µM | 0.5 | – | 71.2 µg/mL and 190 µM | –
15 | CCOC(=O)/C=C/c1ccc(O)c(O)c1 [ethyl caffeate] | – | – | – | – | pIC50 [6]: 4.74
16 | COC(=O)/C=C/c1ccc(O)cc1 [methyl p-coumarate] | – | – | – | – | pIC50 [7]: 3.22
17 | COc1cc(/C=C/C(=O)N2CCC=CC2=O)cc(OC)c1OC [piplartine] | – | – | – | – | pIC50 [4]: 4.68

From article PMC10254306, “Piplartine-Inspired 3,4,5-Trimethoxycinnamates: Trypanocidal, Mechanism of Action, and In Silico Evaluation” (Molecules, 2023)
